From patent US10132795B2, “Method for evaluating or selecting agent for suppressing GIP level elevation” (Kao Corporation, priority 2014, dated 2018)

Experiments:
[1] = system: blood GIP and triglyceride (TG) concentrations; experiment: Single-dose administration test in mice (lipid emulsion load after FABP4/5 inhibitor); type: in vivo, mice (C57BL/6J); conditions: 30 mg/kg body weight intragastric
Protocol: Mice (C57BL/6J, male, 9 weeks old, n=4 to 5, CLEA Japan, Inc.) were fasted for 18 hours and then given intragastric administration of the FABP4/5 inhibitor BMS309403 (30 mg/kg body weight) in a solvent (10% 1-methyl-2-pyrrolione, 5% cremophor, and 2% ethanol) or only the solvent (control) through feeding needles under anesthesia. After 30 minutes, intragastric administration of lipid emulsions (triolein; 2 mg/kg body weight) was given. Blood was collected from the orbital sinus before and 10, 30, and 60 minutes after the administration of lipid emulsions. The blood thus collected was centrifuged at 11,000 rpm, 4° C. for 10 minutes to prepare the plasma. The blood GIP and triglyceride (TG) concentrations were measured with a GIP ELISA kit (for rat/mouse) (Merck Millipore Corporation) and a triglyceride E-test Wako (Wako Pure Chemical Industries, Ltd.), respectively.

[2] = system: mouse model of type-II diabetes or arteriosclerosis; conditions: oral administration; Non Patent Literature 18; cited from earlier work
[3] = system: primary culture cells of the small intestine; experiment: FABP4/5 inhibition test: lipid micelle (PPM)-stimulated GIP secretion in primary culture cells of the small intestine; type: cell-based, C57BL/6J mice; conditions: inhibitor 10 or 25 μM, 30 min pre-incubation and 30 min PPM stimulation; compared to PPM group; FIG. 3
Source text: C57BL/6J mice, 13 to 17 weeks old, were euthanized by cervical dislocation under anesthesia. The upper part of the small intestine (up to 10 cm immediately below the pylorus) was taken out and immersed in ice-cooled L-15 media (Sigma-Aldrich Co. LLC.). The small intestine was then transferred to ice-cooled PBS. Fat, blood vessels, etc. adhering to the intestinal tract were carefully removed. The inside of the lumen was washed with ice-cooled PBS and the tissue was cut into small pieces (pieces having an area of 2 mm^2 or smaller) with a scalpel. The small pieces were washed three to four times with PBS, to which 10 mL of DMEM (Sigma-Aldrich Co. LLC.) having Collagenase XI (Sigma-Aldrich Co. LLC.; 0.4 mg/mL) dissolved therein was added, followed by vigorous shaking for 10 seconds and then incubation at 37° C. for five minutes. The supernatants were then removed and 10 mL of the Collagenase solution was added again, followed by vigorous shaking for 10 seconds and then incubation at 37° C. for five minutes. […]
The media thus collected were centrifuged at 8,000 rpm, 4° C. for five minutes to obtain supernatants (secretion samples). […] GIP was quantitated in these samples with a GIP ELISA kit (for rat/mouse) (Merck Millipore Corporation) to obtain GIP secretion rates.

[4] = 30 min before lipid emulsion, compared to control group, FIG. 2B
[5] = 30 min before triolein lipid emulsion, blood at 10, 30, 60 min, compared to control (solvent) group, FIG. 2A

CCc1c(-c2ccccc2)c(-c2ccccc2)nn1-c1ccccc1-c1cccc(OCC(=O)O)c1 [BMS309403]
Cmax of the blood GIP concentration [1, 4]: statistically significantly reduced | iAUC (0-1 h) of the blood GIP concentration [1, 4]: statistically significantly reduced | increase in the blood GIP concentration (ΔGIP) after the administration of lipid emulsions [1, 5]: statistically significantly reduced | increase in the blood TG concentration (ΔTG) after the administration of lipid emulsions [1, 5]: statistically significantly reduced | pathological condition in mouse model of type-II diabetes or arteriosclerosis [2]: Amelioration in the pathological condition | increase in the GIP secretion rate of PPM-stimulated cells [3]: dose-dependently suppressed
